Type in all cases: cell-based
One assay concerns the target T1, α1 β2 ^I180A γ2 GABAAR (Rattus norvegicus, UniProt P62813+P63138, I205A).
T1 construct: expressed in transfected cells; host or cells: HEK293
As to the kind of experiment: Patch clamp, HEK293, mutant GABAAR. Conditions: glutamate 100 μM co-applied with GABA 1 μM; normalized to wild-type α1β2γ2. The method, then: (§1) To positively confirm one of these two putative binding sites involved in glutamate binding, we performed a systemic mutational analysis of critical amino acids around these two sites followed by electrophysiological characterizations of their impacts on glutamate potentiation in HEK293 cells expressing wild-type or mutated α1β2γ2 GABAARs (Table 1).
(§2) HEK293 cells were cultured in DMEM (Invitrogen) supplemented with 10% fetal bovine serum. Cells were grown to 40–60% confluence and transiently transfected using Lipofectamine 2000 (Invitrogen) with 1:0.5–1 plasmid/lipid ratio. Cells were transfected with a pBK-CMV expression vector containing a rat recombinant GABAAR α, β or γ subunits. Co-transections were done with a plasmid ratio of 1:1 αβ and 2:2:1 for αβγ subunit combinations, respectively. pcDNA3.1-GFP was also co-transfected along with GABAAR subunits as a transfected marker in order to facilitate the visualization of the transfected cells during electrophysiological experiments. Cells were re-plated on glass coverslips after 15–20 h transfection and were cultured for an additional 15–24 h before whole-cell patch-clamp recordings.
(§3) The site-directed mutagenesis of α, β or γ subunits were performed by using the QuikChange method (Stratagene). […] Wild-type or mutant subunits were transfected in HEK293 cells and subjected to electrophysiology examinations.
(§4) Whole-cell patch-clamp recordings were performed under voltage-clamp mode using an Axopatch 200B or 1D patch-clamp amplifier (Molecular Devices) on HEK293 cells and cultured neurons. Whole-cell currents were recorded at a holding potential of −60 mV, and signals were filtered at 2 kHz, digitized at 10 kHz (Digidata 1322 A). Recording pipettes (3–5 MΩ) were filled with the intracellular solution that contained (mM): CsCl 140, HEPES 10, Mg-ATP 4, QX-314 5, pH 7.20; osmolarity, 290–295 mOsm. BAPTA (10 mM) was added in the intracellular solution. The coverslips were continuously superfused with the extracellular solution containing (mM): NaCl 140, KCl 5.4, HEPES 10, MgCl2 1.0, CaCl2 1.3, glucose 20, pH 7.4; osmolarity, 305–315 mOsm. […] Dose–response curves were created by fitting data to Hill equation: I = Imax/[1 + (EC50/[A])^n], where I is the current, Imax is the maximum current, [A] is a given concentration of agonist, n is the Hill coefficient. […] All experiments were performed at room temperature.
Background: The patch-clamp technique gives a direct electrical read-out from membranes.

A further assay has as its target T2, α1 β2^V177A γ2 GABAAR (Rattus norvegicus, UniProt P62813+P63138, V202A).
T2 construct: expressed in transfected cells; host or cells: HEK293
Put plainly: Patch clamp, HEK293, mutant GABAAR. Conditions: glutamate 100 μM co-applied with GABA 1 μM; normalized to wild-type α1β2γ2. The method, then:
as §1, §2, §3, §4

The target in the next assay is T3, α1^E208A β2 γ2 GABAAR (Rattus norvegicus, UniProt P62813+P63138, E235A).
T3 construct: expressed in transfected cells; host or cells: HEK293
Put plainly: Patch clamp, HEK293, mutant GABAAR. The settings on record: glutamate 100 μM co-applied with GABA 1 μM; normalized to wild-type α1β2γ2. The method, then:
as §1, §2, §3, §4

Another assay addresses T4, α1^F99A β2 γ2 GABAAR (Rattus norvegicus, UniProt P62813+P63138, F126A).
T4 construct: expressed in transfected cells; host or cells: HEK293
As to the kind of experiment: Patch clamp, HEK293, mutant GABAAR. Conditions: glutamate 100 μM co-applied with GABA 1 μM; normalized to wild-type α1β2γ2. The procedure: as §1, §2, §3, §4

Another assay deals with T5, α1^S158A β2 γ2 GABAAR (Rattus norvegicus, UniProt P62813+P63138, S185A).
T5 construct: expressed in transfected cells; host or cells: HEK293
As to the kind of experiment: Patch clamp, HEK293, mutant GABAAR. The settings on record: glutamate 100 μM co-applied with GABA 1 μM; normalized to wild-type α1β2γ2. The method, then: as §1, §2, §3, §4

In another assay the target is T6, α1^S205A β2 γ2 GABAAR (Rattus norvegicus, UniProt P62813+P63138, S232A).
T6 construct: expressed in transfected cells; host or cells: HEK293
As to the kind of experiment: Patch clamp, HEK293, mutant GABAAR. The settings on record: glutamate 100 μM co-applied with GABA 1 μM; normalized to wild-type α1β2γ2. The procedure:
as §1, §2, §3, §4

The target of another assay is T7, α1^T206A β2 γ2 GABAAR (Rattus norvegicus, UniProt P62813+P63138, T233A).
T7 construct: expressed in transfected cells; host or cells: HEK293
As to the kind of experiment: Patch clamp, HEK293, mutant GABAAR. Conditions: glutamate 100 μM co-applied with GABA 1 μM; normalized to wild-type α1β2γ2. The method, then: as §1, §2, §3, §4

The target of another assay is T8, α1^Y159A β2 γ2 GABAAR (Rattus norvegicus, UniProt P62813+P63138, Y186A).
T8 construct: expressed in transfected cells; host or cells: HEK293
Put plainly: Patch clamp, HEK293, mutant GABAAR. The settings on record: glutamate 100 μM co-applied with GABA 1 μM; normalized to wild-type α1β2γ2. The procedure: as §1, §2, §3, §4

The target of another assay is T9, αK104Wβγ GABAAR (Rattus norvegicus, UniProt P62813+P63138, K131W).
T9 construct: expressed in transfected cells; host or cells: HEK293
As to the kind of experiment: Patch clamp, HEK293, mutant GABAAR. The settings on record: HEK293, read-out: Glutamate potentiation of GABA currents, % of control, normalized to wild-type α1β2γ2.
Excerpt: (§5) To further determine the relative significance between the electrostatic and the side chain steric arrangements of these critical amino acid residues in their interaction with glutamate, we next studied the effects of substitution of these amino acids with amino acids of various sizes or charges on the glutamate potentiation. We substituted α1K104, α1E137, α1K155, or β2E181 with […], a non-charged amino acid, in order to perturb the electrostatic accessibility of glutamate to the binding pocket.
(§6) Fig. 4 Property characterization of glutamate binding sites in HEK cells expressing wild-type or mutated αβγ GABAARs. a, b The effects of electrostatic charge and/or size of the pocket-forming residues on glutamate-induced functional modulation.
as §2, §3, §4

The next assay addresses T10, αK155Rβγ GABAAR (Rattus norvegicus, UniProt P62813+P63138, K182R).
T10 construct: expressed in transfected cells; host or cells: HEK293
Put plainly: Patch clamp, HEK293, mutant GABAAR. Conditions: HEK293, read-out: Glutamate potentiation of GABA currents, % of control, normalized to wild-type α1β2γ2.
Excerpt: as §5, §6, §2, §3, §4

Another assay addresses T11, αβE181Dγ GABAAR (Rattus norvegicus, UniProt P62813+P63138, E206D).
T11 construct: expressed in transfected cells; host or cells: HEK293
As to the kind of experiment: Patch clamp, HEK293, mutant GABAAR. Conditions: HEK293, read-out: Glutamate potentiation of GABA currents, % of control, normalized to wild-type α1β2γ2.
Excerpt: as §5, §6, §2, §3, §4

For another assay, the target named is T12, αβE181Wγ GABAAR (Rattus norvegicus, UniProt P62813+P63138, E206W).
T12 construct: expressed in transfected cells; host or cells: HEK293
T12 sequence (P62813 28-455): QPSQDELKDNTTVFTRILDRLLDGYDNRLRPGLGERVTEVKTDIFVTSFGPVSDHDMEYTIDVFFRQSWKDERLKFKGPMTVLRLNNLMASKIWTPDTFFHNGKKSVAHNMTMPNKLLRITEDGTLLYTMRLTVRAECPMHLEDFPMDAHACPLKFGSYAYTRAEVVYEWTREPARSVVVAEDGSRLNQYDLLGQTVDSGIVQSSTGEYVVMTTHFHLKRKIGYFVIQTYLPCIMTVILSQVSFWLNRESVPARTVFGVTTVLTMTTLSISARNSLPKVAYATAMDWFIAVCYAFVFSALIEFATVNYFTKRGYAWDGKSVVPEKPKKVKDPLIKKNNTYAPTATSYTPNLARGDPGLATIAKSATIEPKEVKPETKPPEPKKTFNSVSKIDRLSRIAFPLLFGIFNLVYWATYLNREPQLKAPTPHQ
T12 sequence (P63138 26-474 E206W): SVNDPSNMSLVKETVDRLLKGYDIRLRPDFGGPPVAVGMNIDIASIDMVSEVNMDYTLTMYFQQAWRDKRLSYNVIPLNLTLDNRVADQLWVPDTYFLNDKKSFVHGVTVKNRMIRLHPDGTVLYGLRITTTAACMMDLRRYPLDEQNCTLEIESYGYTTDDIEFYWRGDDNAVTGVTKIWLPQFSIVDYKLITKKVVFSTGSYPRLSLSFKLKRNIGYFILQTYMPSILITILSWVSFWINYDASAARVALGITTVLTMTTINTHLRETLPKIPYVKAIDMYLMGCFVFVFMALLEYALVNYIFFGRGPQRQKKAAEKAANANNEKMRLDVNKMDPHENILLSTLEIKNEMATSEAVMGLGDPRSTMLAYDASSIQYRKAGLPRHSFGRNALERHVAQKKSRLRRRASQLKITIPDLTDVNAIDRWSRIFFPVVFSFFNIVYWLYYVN
T12 sequence (P18508 39-466 partner): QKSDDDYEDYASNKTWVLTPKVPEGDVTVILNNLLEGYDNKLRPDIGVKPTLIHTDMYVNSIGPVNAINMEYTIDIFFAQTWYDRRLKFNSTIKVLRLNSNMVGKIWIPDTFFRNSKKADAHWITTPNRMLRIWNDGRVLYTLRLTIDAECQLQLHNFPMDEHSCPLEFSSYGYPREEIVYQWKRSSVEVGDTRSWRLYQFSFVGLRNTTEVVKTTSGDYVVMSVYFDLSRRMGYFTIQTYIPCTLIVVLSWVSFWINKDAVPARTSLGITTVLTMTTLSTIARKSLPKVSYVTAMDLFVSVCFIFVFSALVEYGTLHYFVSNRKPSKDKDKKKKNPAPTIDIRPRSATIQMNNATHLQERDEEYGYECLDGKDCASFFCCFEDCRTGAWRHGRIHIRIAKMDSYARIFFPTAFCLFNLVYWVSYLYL
Put plainly: Patch clamp, HEK293, mutant GABAAR. The settings on record: HEK293, read-out: Glutamate potentiation of GABA currents, % of control, normalized to wild-type α1β2γ2.
Excerpt: as §5, §6, §2, §3, §4

Another assay addresses T13, α2E137Gβγ GABAAR (Rattus norvegicus, UniProt P23576+P63138, E165G).
T13 construct: expressed in transfected cells; host or cells: HEK293
As to the kind of experiment: Patch clamp, HEK293, mutant GABAAR. The settings on record: HEK293, read-out: Glutamate potentiation of GABA currents, % of control, normalized to respective wild-type receptor. The procedure:
as §6, §2, §3, §4

A further assay deals with T14, α2K104Dβγ GABAAR (Rattus norvegicus, UniProt P23576+P63138, K132D).
T14 construct: expressed in transfected cells; host or cells: HEK293
As to the kind of experiment: Patch clamp, HEK293, mutant GABAAR. The settings on record: HEK293, read-out: Glutamate potentiation of GABA currents, % of control, normalized to respective wild-type receptor. The procedure:
as §6, §2, §3, §4

The target of another assay is T15, αβ3E182Gγ GABAAR (Rattus norvegicus, UniProt P62813+P63079, E207G).
T15 construct: expressed in transfected cells; host or cells: HEK293
T15 sequence (P62813 28-455): as the sequence (P62813 28-455) above
T15 sequence (P63079 26-473 E207G): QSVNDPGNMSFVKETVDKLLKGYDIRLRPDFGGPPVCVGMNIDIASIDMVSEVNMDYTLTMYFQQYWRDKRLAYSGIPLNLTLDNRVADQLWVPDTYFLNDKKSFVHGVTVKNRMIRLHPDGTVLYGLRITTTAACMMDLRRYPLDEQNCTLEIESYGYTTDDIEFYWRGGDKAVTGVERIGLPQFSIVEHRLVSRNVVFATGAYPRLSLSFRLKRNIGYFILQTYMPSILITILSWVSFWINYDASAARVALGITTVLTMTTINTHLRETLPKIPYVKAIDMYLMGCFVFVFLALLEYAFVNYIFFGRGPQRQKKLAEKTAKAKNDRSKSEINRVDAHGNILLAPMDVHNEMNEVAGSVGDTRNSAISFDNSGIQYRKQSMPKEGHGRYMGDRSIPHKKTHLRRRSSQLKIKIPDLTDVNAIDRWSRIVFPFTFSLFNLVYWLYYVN
T15 sequence (P18508 39-466 partner): as the sequence (P18508 39-466 partner) above
Put plainly: Patch clamp, HEK293, mutant GABAAR. The settings on record: HEK293, read-out: Glutamate potentiation of GABA currents, % of control, normalized to respective wild-type receptor. The procedure: as §6, §2, §3, §4

The target of a further assay is T16, α1/β1/γ2 GABAAR (Rattus norvegicus, UniProt P15431+P62813).
T16 construct: expressed in transfected cells; host or cells: HEK293
Put plainly: Patch clamp, HEK293, β1-containing GABAAR. Conditions: wild-type α1/β1/γ2.

The record followed here is PMC9527238, “Glutamate and GABAA receptor crosstalk mediates homeostatic regulation of neuronal excitation in the mammalian brain” (Signal Transduction and Targeted Therapy, 2022).

Molecules are shown by their SMILES.

T13 sequence (P23576 29-451 E165G): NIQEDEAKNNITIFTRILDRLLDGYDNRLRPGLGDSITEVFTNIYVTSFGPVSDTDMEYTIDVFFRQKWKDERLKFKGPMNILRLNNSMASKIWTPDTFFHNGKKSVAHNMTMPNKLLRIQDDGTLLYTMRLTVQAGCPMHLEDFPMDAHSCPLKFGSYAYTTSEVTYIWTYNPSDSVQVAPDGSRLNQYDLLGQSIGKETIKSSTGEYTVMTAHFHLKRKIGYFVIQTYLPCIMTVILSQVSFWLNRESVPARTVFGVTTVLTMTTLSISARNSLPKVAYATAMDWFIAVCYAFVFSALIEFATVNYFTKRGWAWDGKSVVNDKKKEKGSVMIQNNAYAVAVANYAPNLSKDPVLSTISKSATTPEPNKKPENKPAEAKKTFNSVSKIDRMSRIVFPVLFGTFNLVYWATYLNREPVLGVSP
T13 sequence (P63138 26-474): as the sequence (P63138 26-474 E206W) above, with W181E counted along it
T13 sequence (P18508 39-466 partner): as the sequence (P18508 39-466 partner) above

As to `N[C@@H](CCC(=O)O)C(=O)O` [glutamate, Glutamate], the Relative potentiation at α1 β2 ^I180A γ2 GABAAR came to 18.8 ± 12.9%; at α1 β2^V177A γ2 GABAAR, 89.5 ± 28.3%; on α1^E208A β2 γ2 GABAAR, 90.9 ± 28.7%; at α1^F99A β2 γ2 GABAAR, 96.4 ± 23.0%; on α1^S158A β2 γ2 GABAAR, 106.9 ± 39.8%; at α1^S205A β2 γ2 GABAAR, 113.1 ± 33.0%. The values for the Relative potentiation on α1^T206A β2 γ2 GABAAR and at α1^Y159A β2 γ2 GABAAR were 129.3 ± 61.7% and 90.8 ± 26.7%, respectively. For the same compound, the activity at 100 µM on αK104Wβγ GABAAR (Glu 100 μM) amounted to 17.8 ± 15.3%; at αK155Rβγ GABAAR (Glu 100 μM), 88.4 ± 22.5%; at αβE181Dγ GABAAR (Glu 100 μM) it was 155 ± 39.5%; at αβE181Wγ GABAAR (Glu 100 μM) it was 5.4 ± 4.9%; on α2E137Gβγ GABAAR (Glu 100 μM), 0.3 ± 3.4%; on α2K104Dβγ GABAAR (Glu 100 μM), 2.7 ± 3.1%. In addition, the activity at 100 µM at αβ3E182Gγ GABAAR (Glu 100 μM) stood at 2.3 ± 5%. Also, the activity at 1000 µM on αK104Wβγ GABAAR (Glu 1 mM) turned out to be 50.8 ± 17.2%; on αK155Rβγ GABAAR (Glu 1 mM), 106 ± 20.4%; on αβE181Dγ GABAAR (Glu 1 mM), 102 ± 24.5%; at αβE181Wγ GABAAR (Glu 1 mM) it was 7.6 ± 4.3%; on α2E137Gβγ GABAAR (Glu 1 mM), 5.7 ± 6.2%; at α2K104Dβγ GABAAR (Glu 1 mM), 15.1 ± 4.4%. For the same compound, the activity at 1000 µM at αβ3E182Gγ GABAAR (Glu 1 mM) is 2.4 ± 7.9%. Besides, at α1/β1/γ2 GABAAR, the “potentiation of GABA-induced currents by glutamate” value is recorded as “could also potentiate GABA-induced currents”.
